Reference: patent US11220527B2, “Peptides derived from the propeptide NTSR3 and their use in the treatment of depression” (CENTRE NATIONAL DE LA RECHERCHE SCIENTIFIQUE, priority 2016, dated 2022)
Where no end group is shown, it is not given here.

Columns and labels:
PSD-95 protein = test: Synaptogenesis: PSD-95 expression in cortical neurons by Western blot; format: cell-based, mouse C57BI/6J; settings: 1 μM, 0-36 hours, normalized to ß-actin, FIG. 6
Experimental: Pregnant female C57BI/6J mice (20-25 g, Janvier Labs, St Berthevin, France) were anesthetized by inhalation of 2% isoflurane mixed with 30% oxygen and 70% nitrous oxide, and then sacrificed. The embryos (E14) were removed and the cerebral cortex was dissected in PBS containing 1% glucose. Neurons were prepared from cerebral cortex by mechanical dissociation, as described in Brewer and Torricelli, 2007 [26]. The dissociated neurons were distributed in poly-L-lysine treated plates and cultured for up to 10 days in neurobasal medium containing 2% B27 (Invitrogen, Fisher Scientific, Illkirch, France) and 50 μg/ml gentamycin (Sigma France), at 37° C. under 5% CO2. […]
Cortical neurons treated with peptides G/A-PE(22-28) and biotinylated G/A-PE(22-28) for different durations (0, 5, 8, 24 and 36 hours) were homogenized in Laemmli buffer and analyzed using 10% SDS-Page gels. […] The ß-actin contents were determined after extraction using a 1/5000 dilution of anti-β-actin antibodies (Santa Cruz mouse monoclonal antibody, dilution 1/5000). […] The proteins were detected with ECL Plus detection reagents (Amersham Biosciences) using the LAS-3000 imaging system (Fujifilm, Düsseldorf, Germany). The relative intensities of each labeled band were analyzed by densitometric scanning using ImageJ software (Wayne Rasband, National Institute of Health, Bethesda, Md., USA). […]

[1] = test system: BrdU-positive cells of the dentate gyrus of the hippocampus; test: Hippocampal neurogenesis by BrdU immunohistochemistry; format: in vivo; settings: mice, four days of treatment, FIG. 5
Experimental: BrdU (5-bromo-2′-deoxyuridine) is a synthetic nucleoside analogous to thymidine. It is incorporated during DNA replication during phase S (chromosome duplication during interphase) of the cells in division. Injection of BrdU makes it possible to visualize the cells in division of the tissue to be analyzed by means of immunological labeling. In the present study, the hippocampal neurogenesis of the mice was evaluated after treatment with spadin or the different analogs.
After the behavioral tests, the mice were injected with BrdU at a final concentration of 120 mg/kg intraperitoneally, according to the modified protocol of Beauquis, J. et al. (Eur J Neurosci 23, 1539-1546, 2007). Four injections of 300 μl at 10 mg/ml, spaced two hours apart, were performed. 24 hours after the injections, the mice were anesthetized with pentobarbital (100 mg/kg) and then perfused intracardially. During the intracardiac perfusion, physiological saline was administered to remove all blood from the body of the mice, and then 4% paraformaldehyde (PFA) was perfused to fix the organs. Post-fixation in 4% PFA was also performed overnight. The brains of the mice were cut with a vibratome (Leica), which allowed 40 μm floating frontal sections to be obtained. The sections selected for the immunological reaction were those ranging from bregma 3.3 to 5.3. Eight sections were selected with a regular spacing, allowing the entire hippocampus to be covered while remaining homogeneous from one brain to another.
The immunological reaction was performed by incubating an anti-BrdU primary antibody (BD Pharmingen, 1/8000), with the brain sections, overnight at 4° C. The brain sections were then washed in PBS (Phosphate Buffered Saline) and incubated for two hours with the secondary antibody (biotinylated goat anti-mouse antibody, Vector laboratories, 1/400). […]
The sections were then mounted on slides and fixed with Entellan. BrdU-positive cells of the dentate gyrus of the hippocampus were counted in both hemispheres of each brain. […]

AVSWGLR [G/A-PE(22-28), AVSWGLR]
PSD-95 synaptic protein expression (synaptogenesis) (PSD-95 protein): increased PSD-95 synaptic protein expression
neurogenesis (BrdU-positive cells of the hippocampus) [1]: increase neurogenesis more strongly than peptide PE(22-28)
neurogenesis (BrdU-positive cells of the hippocampus) ([1]; listed as G/APE(22-28)): capable of inducing an increase in neurogenesis
